Results as given in PubChem BioAssay (NCI).
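1) Cells in 96-well plates. 2) Compound, 48 h, 5 concentrations. 3) Linear interpolation between surrounding doses. 4) Unreached endpoint = highest concentration. GI50 is the concentration that inhibits growth by half. TGI is the concentration that stops growth completely.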

Test system: SK-MEL-5 melanoma
Assay: NCI-60 cell line screen, 48 h

Compared with `O=[N+]([O-])C(=C(Nc1ccccc1)Nc1ccccc1)C(Cl)=C(Cl)Cl`, `O=C1NC(N2CCOCC2)=N/C1=C\c1ccco1` is higher in TGI: 29.2 µM for the first, over 100 µM for the second.

Test system: NCI-H226 lung
Assay: NCI-60 cell line screen, 48 h

Compared with `CC1(C)[C@@H]2CC[C@@]1(C)CN(CCC[N+](C)(C)C)C2`, `COc1cc(C(=O)N2CCN(C(=O)c3cc(OC)c(OC)c(OC)c3)C2=S)cc(OC)c1OC` is lower in TGI: over 100 µM for the first, 39.1 µM for the second.

Compared with `O=C(CCn1ccnc1[N+](=O)[O-])NCCCn1ccnc1[N+](=O)[O-]`, `O=[N+]([O-])C(=C(Nc1ccccc1)Nc1ccccc1)C(Cl)=C(Cl)Cl` is lower in TGI: over 100 µM for the first, 40.4 µM for the second.

In the case of `O=C1NC(N2CCOCC2)=N/C1=C\c1ccco1`, the TGI is reported as over 100 µM.

In the case of `COc1cc(C(=O)N2CCN(C(=O)c3cc(OC)c(OC)c(OC)c3)C2=S)cc(OC)c1OC`, the GI50 is reported as 19.5 µM.

Test system: MDA-MB-231 breast
Assay: NCI-60 cell line screen, 48 h

Compared with `CN1C(=O)c2ccccc2NC(=O)C12O[C@@H]2c1ccccc1` (some centres undefined), `O=[N+]([O-])C(=C(Nc1ccccc1)Nc1ccccc1)C(Cl)=C(Cl)Cl` is lower in TGI: over 100 µM for the first, 33.3 µM for the second.

Compared with `CC1(C)[C@@H]2CC[C@@]1(C)CN(CCC[N+](C)(C)C)C2`, `COc1cc(C(=O)N2CCN(C(=O)c3cc(OC)c(OC)c(OC)c3)C2=S)cc(OC)c1OC` is lower in TGI: over 100 µM for the first, 36 µM for the second.

`O=C(CCn1ccnc1[N+](=O)[O-])NCCCn1ccnc1[N+](=O)[O-]` and `O=C1NC(N2CCOCC2)=N/C1=C\c1ccco1` cannot be ordered by TGI: over 100 µM for the first, over 100 µM for the second.

With `COc1cc(C(=O)N2CCN(C(=O)c3cc(OC)c(OC)c(OC)c3)C2=S)cc(OC)c1OC` the GI50 was 16.7 µM.

Test system: SN12C renal
Assay: NCI-60 cell line screen, 48 h

Going from `CN1C(=O)c2ccccc2NC(=O)C12O[C@@H]2c1ccccc1` (some centres undefined) to `O=[N+]([O-])C(=C(Nc1ccccc1)Nc1ccccc1)C(Cl)=C(Cl)Cl`, the TGI falls from over 100 µM to 35.5 µM.

First: CC1(C)[C@@H]2CC[C@@]1(C)CN(CCC[N+](C)(C)C)C2
Second: COc1cc(C(=O)N2CCN(C(=O)c3cc(OC)c(OC)c(OC)c3)C2=S)cc(OC)c1OC
The TGI of the first is higher: over 100 µM for the first, 35.7 µM for the second.

`O=C(CCn1ccnc1[N+](=O)[O-])NCCCn1ccnc1[N+](=O)[O-]` and `O=C1NC(N2CCOCC2)=N/C1=C\c1ccco1` cannot be ordered by TGI: over 100 µM for the first, over 100 µM for the second.

`COc1cc(C(=O)N2CCN(C(=O)c3cc(OC)c(OC)c(OC)c3)C2=S)cc(OC)c1OC` gave a GI50 of 17.1 µM.

Test system: IGROV1 ovarian
Assay: NCI-60 cell line screen, 48 h

First: CN1C(=O)c2ccccc2NC(=O)C12O[C@@H]2c1ccccc1 (some centres undefined)
Second: O=[N+]([O-])C(=C(Nc1ccccc1)Nc1ccccc1)C(Cl)=C(Cl)Cl
The TGI of the first is higher: over 100 µM for the first, 27.2 µM for the second.

First: CC1(C)[C@@H]2CC[C@@]1(C)CN(CCC[N+](C)(C)C)C2
Second: COc1cc(C(=O)N2CCN(C(=O)c3cc(OC)c(OC)c(OC)c3)C2=S)cc(OC)c1OC
The TGI of the first is higher: over 100 µM for the first, 56.6 µM for the second.

`O=C(CCn1ccnc1[N+](=O)[O-])NCCCn1ccnc1[N+](=O)[O-]` and `O=C1NC(N2CCOCC2)=N/C1=C\c1ccco1` cannot be ordered by TGI: over 100 µM for the first, over 100 µM for the second.

Compound `COc1cc(C(=O)N2CCN(C(=O)c3cc(OC)c(OC)c(OC)c3)C2=S)cc(OC)c1OC` has a GI50 of 24.7 µM.

Test system: NCI/ADR-RES ovarian
Assay: NCI-60 cell line screen, 48 h

First: CN1C(=O)c2ccccc2NC(=O)C12O[C@@H]2c1ccccc1 (some centres undefined)
Second: O=[N+]([O-])C(=C(Nc1ccccc1)Nc1ccccc1)C(Cl)=C(Cl)Cl
The TGI of the first is higher: over 100 µM for the first, 58.2 µM for the second.

First: CC1(C)[C@@H]2CC[C@@]1(C)CN(CCC[N+](C)(C)C)C2
Second: COc1cc(C(=O)N2CCN(C(=O)c3cc(OC)c(OC)c(OC)c3)C2=S)cc(OC)c1OC
The TGI of the first is higher: over 100 µM for the first, 74.5 µM for the second.

`O=C(CCn1ccnc1[N+](=O)[O-])NCCCn1ccnc1[N+](=O)[O-]` and `O=C1NC(N2CCOCC2)=N/C1=C\c1ccco1` cannot be ordered by TGI: over 100 µM for the first, over 100 µM for the second.

Work on `COc1cc(C(=O)N2CCN(C(=O)c3cc(OC)c(OC)c(OC)c3)C2=S)cc(OC)c1OC` yielded a GI50 of 26.8 µM.

Test system: HOP-62 NSCLC
Assay: NCI-60 cell line screen, 48 h

Compared with `CN1C(=O)c2ccccc2NC(=O)C12O[C@@H]2c1ccccc1` (some centres undefined), `O=[N+]([O-])C(=C(Nc1ccccc1)Nc1ccccc1)C(Cl)=C(Cl)Cl` is lower in TGI: over 100 µM for the first, 44.7 µM for the second.

First: CC1(C)[C@@H]2CC[C@@]1(C)CN(CCC[N+](C)(C)C)C2
Second: COc1cc(C(=O)N2CCN(C(=O)c3cc(OC)c(OC)c(OC)c3)C2=S)cc(OC)c1OC
The TGI of the first is higher: over 100 µM for the first, 38.9 µM for the second.

`O=C(CCn1ccnc1[N+](=O)[O-])NCCCn1ccnc1[N+](=O)[O-]` and `O=C1NC(N2CCOCC2)=N/C1=C\c1ccco1` cannot be ordered by TGI: over 100 µM for the first, over 100 µM for the second.

With `COc1cc(C(=O)N2CCN(C(=O)c3cc(OC)c(OC)c(OC)c3)C2=S)cc(OC)c1OC` the GI50 was 15.2 µM.

Test system: OVCAR-3 ovarian
Assay: NCI-60 cell line screen, 48 h

First: CN1C(=O)c2ccccc2NC(=O)C12O[C@@H]2c1ccccc1 (some centres undefined)
Second: O=[N+]([O-])C(=C(Nc1ccccc1)Nc1ccccc1)C(Cl)=C(Cl)Cl
The TGI of the first is higher: over 100 µM for the first, 33.5 µM for the second.

Going from `CC1(C)[C@@H]2CC[C@@]1(C)CN(CCC[N+](C)(C)C)C2` to `COc1cc(C(=O)N2CCN(C(=O)c3cc(OC)c(OC)c(OC)c3)C2=S)cc(OC)c1OC`, the TGI falls from over 100 µM to 29.6 µM.

For `O=C(CCn1ccnc1[N+](=O)[O-])NCCCn1ccnc1[N+](=O)[O-]`, the TGI was over 100 µM.

`COc1cc(C(=O)N2CCN(C(=O)c3cc(OC)c(OC)c(OC)c3)C2=S)cc(OC)c1OC` gave a GI50 of 15.2 µM.
